Literature values in US20220233487A1, “PREPARATION FOR USE IN WEIGHT MANAGEMENT COMPRISING OMEGA-3 FATTY ACID SALTS AND BASIC AMINO ACIDS” (Evonik Operations GmbH, priority 2019, published 2022).

- pKa-values: pKCOOH: pKCOOH: 2.0
SMILES: N=C(N)NCCC[C@H](N)C(=O)O [L-arginine]
